Measurements: PMC6556873, “Rapid Covalent-Probe Discovery by Electrophile-Fragment Screening” (Journal of the American Chemical Society, 2019)
Read-outs that look alike come from different tables or passages of the source.

Columns and labels:
[1] = in vitro; set-up: species or system CCD841, HEK293; conditions: human, hb2 cells, read-out: HB-2 Cells Viability (%)
[2] = in vitro; set-up: species or system HB2, CCD841; conditions: human, hek293 cells
[3] = in vitro; set-up: species or system HB2, HEK293; conditions: human, ccd841 cells
[4] = target: T1, NUDT7 (Homo sapiens, UniProt P0C024); set-up: Intact protein LC/MS covalent labelling, fragments in pools of five, 200 uM each, 4 °C; conditions: 24 h, 4 °C, pool of five; 200 µM; covalent
T1 construct: residues 14-235, E. coli, pNIC28-Bsa4, N-terminal His6 tag removed by TEV, construct 26672 Da
T1 sequence (P0C024 14-235): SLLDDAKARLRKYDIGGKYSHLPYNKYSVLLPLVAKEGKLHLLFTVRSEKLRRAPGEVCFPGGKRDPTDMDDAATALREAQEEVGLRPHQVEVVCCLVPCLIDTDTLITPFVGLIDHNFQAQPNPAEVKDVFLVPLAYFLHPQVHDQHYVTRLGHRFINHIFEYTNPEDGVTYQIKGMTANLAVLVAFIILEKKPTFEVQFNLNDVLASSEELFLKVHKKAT

[5] = target: T2, BSA (Bos taurus, UniProt P02769); set-up: Intact protein LC/MS covalent labelling, fragments in pools of five, 200 uM each, 4 °C; conditions: 24 h, 4 °C, pool of five; 200 µM; covalent
T2 construct: gene ALB
T2 sequence (P02769 whole entry, the tested form may be a part): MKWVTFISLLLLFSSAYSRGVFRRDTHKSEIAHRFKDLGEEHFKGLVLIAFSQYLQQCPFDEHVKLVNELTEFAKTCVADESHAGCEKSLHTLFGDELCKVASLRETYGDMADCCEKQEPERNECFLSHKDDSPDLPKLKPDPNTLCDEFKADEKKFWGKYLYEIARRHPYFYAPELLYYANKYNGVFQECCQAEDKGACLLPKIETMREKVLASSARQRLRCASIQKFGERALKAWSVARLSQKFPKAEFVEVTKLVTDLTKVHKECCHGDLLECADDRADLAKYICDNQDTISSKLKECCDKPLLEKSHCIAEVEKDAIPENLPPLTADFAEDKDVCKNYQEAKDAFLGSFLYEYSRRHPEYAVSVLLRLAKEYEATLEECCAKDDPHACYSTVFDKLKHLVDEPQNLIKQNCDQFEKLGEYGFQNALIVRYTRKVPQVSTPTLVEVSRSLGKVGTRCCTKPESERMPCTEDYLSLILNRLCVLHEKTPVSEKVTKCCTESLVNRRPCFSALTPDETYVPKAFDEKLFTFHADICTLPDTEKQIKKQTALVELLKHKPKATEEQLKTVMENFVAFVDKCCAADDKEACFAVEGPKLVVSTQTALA

[6] = target: T3, OTUB2 (OTUB2A) (Homo sapiens, UniProt Q96DC9); set-up: Intact protein LC/MS covalent labelling, fragments in pools of five, 200 uM each, 4 °C; conditions: 24 h, 4 °C, pool of five; 200 µM; covalent
T3 construct: full length residues 1-234, E. coli BL21(DE3)-R3, His tag removed by TEV, construct 27312 Da
T3 sequence (Q96DC9 1-234): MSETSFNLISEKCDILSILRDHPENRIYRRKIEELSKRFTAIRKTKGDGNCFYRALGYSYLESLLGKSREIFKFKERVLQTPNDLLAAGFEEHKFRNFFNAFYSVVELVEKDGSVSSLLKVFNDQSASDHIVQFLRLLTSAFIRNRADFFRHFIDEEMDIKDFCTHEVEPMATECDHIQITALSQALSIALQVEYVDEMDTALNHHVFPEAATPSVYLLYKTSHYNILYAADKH

[7] = target: T4, PCAF (Homo sapiens, UniProt Q92831); set-up: Intact protein LC/MS covalent labelling, fragments in pools of five, 200 uM each, 4 °C; conditions: 24 h, 4 °C, pool of five; 200 µM; covalent
T4 construct: gene KAT2B
T4 sequence (Q92831 whole entry, the tested form may be a part): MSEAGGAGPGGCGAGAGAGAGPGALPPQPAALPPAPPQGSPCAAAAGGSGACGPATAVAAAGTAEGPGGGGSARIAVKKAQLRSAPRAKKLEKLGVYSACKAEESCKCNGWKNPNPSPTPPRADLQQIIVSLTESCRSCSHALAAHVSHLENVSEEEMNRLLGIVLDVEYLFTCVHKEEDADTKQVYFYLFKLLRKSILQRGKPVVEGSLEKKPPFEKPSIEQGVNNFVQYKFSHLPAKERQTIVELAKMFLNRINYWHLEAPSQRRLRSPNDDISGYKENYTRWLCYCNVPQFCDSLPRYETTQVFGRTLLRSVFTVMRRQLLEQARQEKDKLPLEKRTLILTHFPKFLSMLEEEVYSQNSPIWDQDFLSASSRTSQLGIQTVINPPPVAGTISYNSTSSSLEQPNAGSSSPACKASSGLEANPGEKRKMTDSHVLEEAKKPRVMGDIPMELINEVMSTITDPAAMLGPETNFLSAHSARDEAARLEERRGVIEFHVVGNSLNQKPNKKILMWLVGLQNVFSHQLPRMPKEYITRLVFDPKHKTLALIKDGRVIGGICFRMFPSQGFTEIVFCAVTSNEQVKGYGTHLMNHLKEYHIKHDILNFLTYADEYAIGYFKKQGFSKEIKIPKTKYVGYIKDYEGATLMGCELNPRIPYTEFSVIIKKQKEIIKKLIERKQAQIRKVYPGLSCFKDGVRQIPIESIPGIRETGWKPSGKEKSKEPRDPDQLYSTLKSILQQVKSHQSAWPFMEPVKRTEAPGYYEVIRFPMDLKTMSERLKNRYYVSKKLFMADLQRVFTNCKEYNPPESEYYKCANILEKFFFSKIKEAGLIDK

Compound	NUDT7 [4]	BSA [5]	OTUB2 [6]	PCAF [7]	viability at 48 h, 10 µM [1] [%]	viability at 48 h, 10 µM [2] [%]	viability at 48 h, 10 µM [3] [%]
O=C(CCl)NC(=O)c1cccs1 [PCM-0102222]	0	0.2	0	0	110	109	105
CCC(C)(C)NC(=O)CCl [PCM-0102161]	0	0	0.09	0	99.3	116	100
CC(C)C(C#N)N1CCN(C(=O)CCl)CC1 (stereo not drawn) [PCM-0102263]	0.17	0	0.31	0	64	13.9	65.2
C=CC(=O)N1CCCC(Cc2nccn2C)C1 (stereo not drawn) [PCM-0102433]	0.2	0	0.26	0.44	94.7	92.9	97.8
CC(NC(=O)CCl)c1cc2ccccc2o1 (stereo not drawn) [PCM-0102117]	0.12	0	0.41	0	71	62.9	70.7
O=C(CCl)NC(=O)Nc1ccc(Br)cc1 [PCM-0102308]	0.17	0.11	0.1	0	78.8	71.6	89.9
Cl.O=C(CCl)N1CCN(CC(=O)N2CCCC2)CC1 [PCM-0102346]	0	0	0	0	98.1	99	80.8
Cl.O=C(CCl)NCc1cccnc1 [PCM-0102497]	0	0	0.05	0	106	107	90.2
Cc1c(C#N)c(NC(=O)CCl)n(-c2ccc(F)cc2)c1C [PCM-0102099]	0.17	0	0	0	33.6	11.6	53.9
Cc1ccc(S(=O)(=O)N2CCN(C(=O)CCl)CC2)cc1C [PCM-0102379]	0.1	0	0	0	1.8	2.7	22.6
O=C(CCl)N1CCCCCCC1 [PCM-0102377]	0	0	0	0	36.7	43.5	82.1
CCc1nc(NC(=O)CCl)sc1C [PCM-0102231]	0.33	0	0	0	61.1	56.5	78.9
CCC1CN(C(=O)CCl)CCO1 (stereo not drawn) [PCM-0102436]	0	0	0	0	85.5	71.4	79.3
O=C(CCl)Nc1ccc(C(F)(F)F)cc1 [PCM-0102323]	0.07	0	0.17	0	11.1	5.5	53.2
O=C(CCl)NNC(=O)c1cccc(Cl)c1 [PCM-0102470]	0	0	0.38	0	84.7	94.8	81.3

More lines, main results first:

NUDT7 [4]	BSA [5]	OTUB2 [6]	PCAF [7]	Compound	viability at 48 h, 10 µM [1] [%]	viability at 48 h, 10 µM [2] [%]	viability at 48 h, 10 µM [3] [%]
0.09	0	0.09	0	O=C(NC1CCN(C(=O)CCl)CC1)c1ccccc1 [PCM-0102575]	63.8	40.6	68.2
0.06	0	0.2	0	Cc1c(Cl)cnc(NC(=O)CCl)c1Cl [PCM-0102657]	101	99.6	98.2
0	0	0	0	C=CC(=O)N1CCOCC1c1cccn1C (stereo not drawn) [PCM-0102721]	102	97.2	92.8
0	0	0.32	0	CC(C)(C)c1ccc(NC(=O)CCl)cc1 [PCM-0102622]	12.6	10.3	38.7
0.36	0	0.16	0	NC(=O)c1c(NC(=O)CCl)sc2c1CCCC2 [PCM-0102620]	42.3	29.6	73.1
0	0	0	0	CS(C)(=O)=NC(=O)CCl [PCM-0102969]	96.1	102	97.5
0	0	0	0	C=CC(=O)NCC1CCCS1 (stereo not drawn) [PCM-0102719]	102	86.1	105
0	0	0.13	0	C=CC(=O)N1CCCC2(CNC(=O)O2)C1 (stereo not drawn) [PCM-0102808]	103	102	113
0.22	0	0	0	O=C(CCl)N1CCN(c2ncc(Cl)cc2Cl)CC1 [PCM-0103022]	3.6	13.4	36.4
0	0	0	0	C=CC(=O)N1CCN(C(C)C)c2ccccc2C1 [PCM-0102888]	108	101	93.1
0	0	0	0	C=CC(=O)N1CCCC(c2nc3c(s2)CCCC3)C1 (stereo not drawn) [PCM-0103069]	98.5	79.4	104
0	0	0	0	C=CC(=O)Nc1ccc(N2CCOCC2)cc1 [PCM-0102551]	99.9	82.5	113
0.17	0	0	0	CN(Cc1cccs1)C(=O)CCl [PCM-0102636]	11.3	7	57.7
0	0	0.41	0	CC(C)(C)NC(=O)CNC(=O)CCl [PCM-0102817]	102	101	87.5
0.83	0	0.07	0	O=C(CCl)Nc1nc2ccccc2s1 [PCM-0102698]	64.2	65.6	77.5
0.43	0.07	0	0	CCN(C(=O)CCl)c1ccccc1C [PCM-0102980]	93.4	66.1	85.7
0.09	0	0	0	Cc1ccc(CN(C)C(=O)CCl)cc1 [PCM-0103017]	67.7	58.2	73.9
0	0	0	0	C=CC(=O)NC1CCc2nc(-c3cc(F)ccc3F)cn2C1 (stereo not drawn) [PCM-0102566]	97.4	78	106
